{"source": "patent US20070238698A1", "about": "“Method for manufacturing drinking water having chitosan” (Hsien-Chih Lin, priority 2006, published 2007)", "origin": "cited, not measured here", "conditions_in_all_cases": "added to drinking water; experiments to animals", "key": {"inoculated tumors": {"tested_on": "inoculated tumors"}, "[1]": {"tested_on": "huge corrosion cell having ability of immunity"}, "enteric microflora": {"tested_on": "enteric microflora"}}}
{"substance": "chitosan oligosaccharide", "values": [{"measurement": "effect on inoculated tumors", "setting": "inoculated tumors", "value": "reduced the inoculated tumors"}, {"measurement": "effect on huge corrosion cell having ability of immunity", "setting": "[1]", "value": "increase the huge corrosion cell having ability of immunity"}, {"measurement": "effect on enteric microflora of animals", "setting": "enteric microflora", "value": "improve the enteric microflora of animals"}]}
